Common to all, as to format: cell-based
Assay [1] deals with MYB mRNA. The experiment in a line: Splicing RT-qPCR assay (THP), Table 2A. The conditions noted are these: Table 2A (THP); for AC50: AJ mRNA increase, read-out: MYB AJ (increase in alternative junction mRNA, AC50); for pIC50: CJ mRNA decrease, read-out: MYB CJ (decrease in canonical junction mRNA, IC50). On the technique in general: Real-time PCR tracks product formation cycle by cycle.

For assay [2], the system named is HTT mRNA. The experiment in a line: Gene panel canonical junction qPCR assay, decrease in CJ mRNA, Table 3. The following applies: decrease in canonical junction (CJ) mRNA, gene panel qPCR, Table 3. In a few lines: (§1)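 A673 (DMEM, 10% FBS, 15,000 cells/well) or K562 (IMDM, 10% FBS) cells treated 24 h at 37 °C with 11-point 3-fold dilutions, top 10 uM, DMSO ≤0.25%. Canonical exon-exon junction mRNA measured by RT-qPCR, normalized to GAPDH, GUSB or PPIA and DMSO (ΔΔCt); IC50 from 4-parameter logistic fit.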

The subject of assay [3] is MYB mRNA. Described as above. The following applies: decrease in canonical junction (CJ) mRNA, gene panel qPCR, Table 3. A digest of the protocol: as §1
The subject of assay [4] is SH-SY5Y (human neuroblastoma) cells. As to the kind of experiment: Cell viability, Cell Titer Glo 2.0 assay. The following applies: read-out: Viability SHSY5Y.3 GI50. A digest of the protocol: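 Toxicity screen in SH-SY5Y cells. Compounds were serially diluted in DMSO and then in medium, giving 0.1% DMSO final. Viability was read with CellTiter-Glo 2.0 after 72 h at 37 °C, 5% CO2, against medium-only blank wells.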

Assay [5] relates to HTT mRNA. The experiment in a line: Splicing RT-qPCR assay (THP), Table 2A. The following applies: Table 2A (THP); for AC50: AJ mRNA increase, read-out: HTT AJ (increase in alternative junction mRNA, AC50); for pIC50: CJ mRNA decrease, read-out: HTT CJ (decrease in canonical junction mRNA, IC50).

These results are taken from patent publication US20260285853A1, “COMPOUNDS AND METHODS FOR MODULATING SPLICING” (REMIX THERAPEUTICS INC., priority 2023, published 2026).

Broadly, the AC50 is the concentration at which the activity in the assay is half-maximal. In general, pIC50 refers to the negative decadic logarithm of the IC50, by convention in mol/L. One may read the GI50 as the concentration giving 50% growth inhibition.

pIC50: −log10 of the molar value. Bounds are passed on as bounds.

Take `CCNCC1CCN(c2cc(F)c(C(=O)Nc3cc4cn(C)nc4cc3OC)c3nn(C)cc23)C1` (stereo not shown) [Compound 464, 4-(3-[(ethylamino)methyl]pyrrolidin-1-yl)-6-fluoro-N-(6-methoxy-2-methylindazol-5-yl)-2-methylindazole-7-carboxamide]: the AC50 in the assay with MYB mRNA [1] and with HTT mRNA [5] was 0.1 to 1 µM each time. Besides, the pIC50 in the assay on MYB mRNA [1], in the assay with HTT mRNA [2], with MYB mRNA [3] and in the assay with HTT mRNA [5] was 6.00 to 7.00 throughout. In assay [4], the GI50 was 0.1 to 1 µM.
On to `Cc1cn2cc(NC(=O)c3c(F)cc(NCC4CCNCC4)c4cn(C)nc34)nc2c(C)n1` [Compound 465, N-(6,8-dimethylimidazo[1,2-a]pyrazin-2-yl)-6-fluoro-2-methyl-4-(4-piperidylmethylamino)indazole-7-carboxamide], for which the half-maximal activity concentration (AC50) in the assay on MYB mRNA [1] and in the assay with HTT mRNA [5] was > 10 µM throughout. Further, the pIC50 in the assay with MYB mRNA [1], in the assay on HTT mRNA [2], with MYB mRNA [3] and in the assay on HTT mRNA [5] was < 5.00 in each case. Moreover, the GI50 in assay [4] was 0.1 to 1 µM.
As for `COc1cc2nn(C)cc2cc1NC(=O)c1c(C2CC2)cc(N2CCC(NC3CC3)CC2)c2cn(C)nc12` [Compound 466, 6-cyclopropyl-4-[4-(cyclopropylamino)-1-piperidyl]-N-(6-methoxy-2-methyl-indazol-5-yl)-2-methyl-indazole-7-carboxamide], the AC50 in the assay on MYB mRNA [1] and with HTT mRNA [5] was > 10 µM each time. In addition, the pIC50 in the assay with MYB mRNA [1], with HTT mRNA [2], with MYB mRNA [3] and in the assay on HTT mRNA [5] was < 5.00 throughout. Besides, the concentration for 50% growth inhibition (GI50) in assay [4] is 1 to 10 µM.
For the compound `Cn1cc2cc(NC(=O)c3c(F)cc(N4CCC(NC5CC5)CC4)c4cn(C)nc34)c(OC3CCOC3)cc2n1` (stereo not shown) [Compound 467, 4-[4-(cyclopropyl-amino)-1-piperidyl]-6-fluoro-2-methyl-N-(2-methyl-6-tetrahydrofuran-3-yloxy-indazol-5-yl)indazole-7-carboxamide], the AC50 is < 0.1 µM in the assay on MYB mRNA [1] and 0.1 to 1 µM in the assay on HTT mRNA [5]. Besides, the negative logarithm of the IC50 (pIC50) in the assay with MYB mRNA [1] is > 7.00; in the assay with HTT mRNA [2], 6.00 to 7.00; in the assay on MYB mRNA [3], > 7.00; in the assay on HTT mRNA [5] it was 6.00 to 7.00. Besides, in assay [4], the GI50 fell in the range of 0.1 to 1 µM.
`CCNC1CCN(c2cc(F)c(C(=O)Nc3cn4cc(C)nc(C)c4c3F)c3nn(C)cc23)CC1` [Compound 468, 4-[4-(ethylamino)-1-piperidyl]-6-fluoro-N-(8-fluoro-1,3-dimethyl-pyrrolo[1,2-a]pyrazin-7-yl)-2-methyl-indazole-7-carboxamide]: the results for the AC50 in the assay on MYB mRNA [1] and in the assay with HTT mRNA [5] were < 0.1 µM and > 10 µM, respectively. The pIC50 is > 7.00 with MYB mRNA [1], < 5.00 in the assay on HTT mRNA [2], > 7.00 in the assay with MYB mRNA [3] and < 5.00 in the assay with HTT mRNA [5]. Moreover, in assay [4], the concentration for 50% growth inhibition (GI50) was in the range of 1 to 10 µM.
Consider `Cc1cc2cc(NC(=O)c3ccc(N4CCC(NC5CC5)CC4)c4cn(C)nc34)n(C)c2c(C)n1` [Compound 469, 4-[4-(cyclopropyl-amino)-1-piperidyl]-2-methyl-N-(1,5,7-trimethyl-pyrrolo[2,3-c]-pyridin-2-yl)indazole-7-carboxamide], for which the AC50 with MYB mRNA [1] and in the assay on HTT mRNA [5] was 1 to 10 µM in each case. For the same compound, the negative-log IC50 (pIC50) in the assay with MYB mRNA [1], in the assay with HTT mRNA [2], with MYB mRNA [3] and with HTT mRNA [5] was 5.00 to 6.00 throughout. In assay [4], the GI50 is 0.1 to 1 µM.
For the compound `Cc1cn2cc(NC(=O)c3c(F)cc(N4CC5(CNC5)C4)c4cn(C)nc34)nc2c(C)n1` [Compound 470, 4-(2,6-diazaspiro[3.3]heptan-2-yl)-N-(6,8-dimethyl-imidazo-[1,2-a]-pyrazin-2-yl)-6-fluoro-2-methyl-indazole-7-carboxamide], the half-maximal activity concentration (AC50) in the assay with MYB mRNA [1] and with HTT mRNA [5] was 0.1 to 1 µM each time. Besides, the pIC50 with MYB mRNA [1], in the assay on HTT mRNA [2], with MYB mRNA [3] and in the assay with HTT mRNA [5] was 6.00 to 7.00 each time. In addition, the GI50 in assay [4] was 0.1 to 1 µM.
As for `CCNCC1CCN(c2cc(F)c(C(=O)Nc3cn4cc(C)nc(C)c4n3)c3nn(C)cc23)C1` (stereo not shown) [Compound 471, N-(6,8-dimethylimidazo-[1,2-a]-pyrazin-2-yl)-4-(3-[(ethylamino)methyl]-pyrrolidin-1-yl)-6-fluoro-2-methyl-indazole-7-carboxamide], the values for the half-maximal activity concentration (AC50) in the assay on MYB mRNA [1] and in the assay with HTT mRNA [5] were 0.1 to 1 µM and > 10 µM, respectively. Also, the negative-log IC50 (pIC50) in the assay on MYB mRNA [1] was 6.00 to 7.00; in the assay on HTT mRNA [2] it was < 5.00; in the assay on MYB mRNA [3] it was 6.00 to 7.00; with HTT mRNA [5], < 5.00. In assay [4], the concentration for 50% growth inhibition (GI50) lay within 1 to 10 µM.
Regarding `COc1cc2nn(C)cc2cc1NC(=O)c1c(C)cc(N2CCC(NC3CC3)CC2)c2cn(C)nc12` [Compound 472, 4-[4-(cyclopropylamino)-1-piperidyl]-N-(6-methoxy-2-methyl-indazol-5-yl)-2,6-dimethylindazole-7-carboxamide], the concentration at half-maximal activity (AC50) in the assay with MYB mRNA [1] is 1 to 10 µM; in the assay with HTT mRNA [5], > 10 µM. The pIC50 in the assay with MYB mRNA [1], in the assay on HTT mRNA [2], in the assay with MYB mRNA [3] and in the assay with HTT mRNA [5] was < 5.00 in each case. For the same compound, in assay [4], the GI50 was 1 to 10 µM.
In the case of `Cc1cn2cc(NC(=O)c3c(C)cc(N4CCC(NC5CC5)CC4)c4cn(C)nc34)nc2c(C)n1` [Compound 473, 4-[4-(cyclopropylamino)-1-piperidyl]-N-(6,8-dimethylimidazo[1,2-a]pyrazin-2-yl)-2,6-dimethyl-indazole-7-carboxamide], the half-maximal activity concentration (AC50) with MYB mRNA [1] and with HTT mRNA [5] was > 10 µM each time. For the same compound, the pIC50 in the assay with MYB mRNA [1], in the assay with HTT mRNA [2], in the assay with MYB mRNA [3] and with HTT mRNA [5] was < 5.00 throughout. The GI50 in assay [4] is > 10 µM.
Regarding `Cc1cn2cc(NC(=O)c3c(C4CC4)cc(N4CCC(NC5CC5)CC4)c4cn(C)nc34)nc2c(C)n1` [Compound 474, 6-cyclopropyl-4-[4-(cyclopropylamino)-1-piperidyl]-N-(6,8-dimethyl-imidazo[1,2-a]-pyrazin-2-yl)-2-methyl-indazole-7-carboxamide], the AC50 with MYB mRNA [1] and in the assay on HTT mRNA [5] was > 10 µM throughout. Also, the pIC50 in the assay on MYB mRNA [1], in the assay with HTT mRNA [2], with MYB mRNA [3] and with HTT mRNA [5] was < 5.00 in each case. For the same compound, the GI50 in assay [4] was 1 to 10 µM.
For `COc1cn2nc(C)cc2cc1NC(=O)c1ccc(N2CCC(NC3CC3)CC2)c2cn(C)nc12` [Compound 475, 4-[4-(cyclopropylamino)-1-piperidyl]-N-(6-methoxy-2-methyl-pyrazolo[1,5-a]pyridin-5-yl)-2-methyl-indazole-7-carboxamide], the AC50 in the assay with MYB mRNA [1] is 0.1 to 1 µM; with HTT mRNA [5], > 10 µM. For the same compound, the negative-log IC50 (pIC50) in the assay on MYB mRNA [1] was 6.00 to 7.00; in the assay on HTT mRNA [2], < 5.00; with MYB mRNA [3], 6.00 to 7.00; in the assay with HTT mRNA [5], < 5.00. Also, in assay [4], the GI50 lay within 1 to 10 µM.
On to `Cn1cc2cc(NC(=O)c3ccc(N4CCC(NC5CC5)CC4)c4cn(C)nc34)c(C(F)(F)F)cc2n1` [Compound 476, 4-[4-(cyclopropyl-amino)-1-piperidyl]-2-methyl-N-[2-methyl-6-(trifluoromethyl)-indazol-5-yl]indazole-7-carboxamide], for which the AC50 with MYB mRNA [1] was 1 to 10 µM; in the assay on HTT mRNA [5] it was > 10 µM. Further, the pIC50 in the assay on MYB mRNA [1] was 5.00 to 6.00; in the assay on HTT mRNA [2], < 5.00; in the assay on MYB mRNA [3], 5.00 to 6.00; in the assay on HTT mRNA [5], < 5.00. For the same compound, the GI50 in assay [4] was > 10 µM.
